Assay results: US20250339409A1, “USES OF PAN BET INHIBITORS” (VYNE THERAPEUTICS INC., priority 2021, published 2025)
Read-outs that look alike come from different tables or passages of the source.

Key:
[1] = tested on: reconstituted human epidermis stimulated with TNF-α and IFN-γ; experiment: Reconstituted human epidermis (RHE) vitiligo model: morphological analysis after H/E staining; format: cell-based; details: topical on RHE, 48 h
Protocol: To generate the morphological and functional aspects of vitiligo, in vitro reconstituted epidermis with Normal Human Epidermal Keratinocytes (NHEK) and Normal Human Epidermal Melanocytes, darkly pigmented (NHEM-DP) are exposed to a cytokine cocktail (TNF-α and IFN-γ). The cytokine cocktail is applied during 48 hours in the culture medium of epidermis. NHEK are isolated from the fore skin of 3 Caucasian donors, and NHEM-DP are isolated from 1 donor. The tissues are cultured at the air-liquid interface in Epilife medium (Fisher Scientific, M-EPI-500-A) containing supplements and antibiotics (Gentamycin, Fisher Scientific, 15710-049). […] Three epidermis samples per condition are fixed in 4% formaldehyde solution and embedded in paraffin for further analysis (morphology analysis, melanin and melanocytes localisation/quantification). […] The tissue morphology is analyzed through a Hematoxylin/Eosin (H/E) staining. […] Formulations containing four doses of BETi1, the BETi1 vehicle (placebo) and JAK inhibitor, were evaluated in RHE TNF-α/IFN-γ vitiligo model as described in Experimental section Methods C and D and representative images of H/E stained epidermis sections are shown in FIG. 4A-H. Treatments of the RHEs with each of the formulations were initiated at day 9 of their reconstitution process. […]

[2] = Toxicokinetics in dogs after intra-articular injection: synovial fluid concentrations; format: in vivo, Beagle dogs; set-up: Synovial concentration of BETi1: unit not given here; details: for AUC(0-t) / Cmax / Tmax / concentration at 4 weeks: Beagle, dog, synovial fluid; for AUC(0-t): read-out: Synovia AUC0-672 h; for concentration at 4 weeks: other: intra-articular injection, read-out: synovial level at four weeks post-treatment
Protocol: (§1) 16 Beagle dogs (8 males, 8 females) were assigned to four treatment groups to determine toxicity of BETi1 formulations following intra-articular injection.
The experimental groups are presented below: • Group 1: Control; 0 mg of BETi1/animal dose • Group 2: Low Dose; 7.5 mg of BETi1/animal dose • Group 3: Mid Dose; 75 mg of BETi1/animal dose • Group 4: High Dose; 150 mg of BETi1/animal dose
The control and BETi1 dose formulations were comprised as follows: Control: Vehicle (0.5% sodium carboxymethylcellulose; 0.1% polysorbate 80 in saline) • Low Dose: 0.75% w/w BETi1 suspended in Vehicle • Mid Dose: 7.5% w/w BETi1 suspended in Vehicle • High Dose: 15% w/w BETi1 suspended in Vehicle
Study dogs were administered control treatment or treatment with a BETi1 formulation via intra-articular injection only to their right knee joints. Dosage volume was 1 mL/knee.
Approximately 80 μL of synovial fluid was collected from animals from the right knee joint and placed into appropriately labeled tubes onto wet ice. Synovia was then transferred into labeled clear polypropylene tubes and frozen in the upright position over dry ice and stored in a freezer set to maintain <−60° C. until shipped on dry ice for analysis.
Quantification of BETi1 concentrations in plasma and synovial fluid was performed using a qualified liquid chromatographic triple quadrupole mass spectrometric (LC-MS/MS) method. Synovial fluids were centrifuged before analysis.
Toxicokinetic (TK) analysis of BETi1 plasma concentration-time and synovial fluid concentration-time data was performed. TK parameter values including maximum plasma/synovial fluid concentrations (Cmax), time to reach maximum concentrations (Tmax), and area under the plasma/synovial fluid concentrations vs. time curve (AUC) from time zero to 672-hour (AUC0-672h) was determined. Values that were below the lower limit of quantification (BLQ) were set to zero in the calculation of mean concentrations. When more than half of individual values at a single time point were BLQ, mean values were reported as BLQ.

[3] = tested on: right knee joint; experiment: Toxicity in dogs after intra-articular injection: mortality, pathology, knee joint histopathology (Mankin score); format: in vivo; details: dog
Text: The purpose of this study was to determine the maximum tolerated dose and potential toxicity of BETi1 when administered by intra-articular injection to Beagle dogs and to determine local and systemic toxicokinetic characteristics associated with treatment of Beagle dogs with BETi1 formulations.
as §1
The experimental groups are presented below: • Group 1: Control; 0 mg of BETi1/animal dose • Group 2: Low Dose; 7.5 mg of BETi1/animal dose • Group 3: Mid Dose; 75 mg of BETi1/animal dose • Group 4: High Dose; 150 mg of BETi1/animal dose […]
Several features were measured in treated dogs, including viability, clinical observation, body weight, food consumption, clinical pathology (hematology, coagulation, serum chemistry, urinalysis), toxicokinetics, and pathology.
For all animals from the study, representative samples of organs and all gross lesions and masses from all groups were removed from fixative, trimmed, processed, embedded in paraffin, sectioned, stained with hematoxylin and eosin, and examined microscopically. […] A modified Semi-Quantitative Mankin scoring system was used to in evaluation of right knee joint histopathology, as shown in Table 48 below: […]

SMILES: Cn1cc(-c2cccc(O)c2Oc2ccccc2)c2cc[nH]c2c1=O [BETi1]
- morphological alteration of RHE (H/E staining) [1]: did not induce any morphological alteration
- Synovial concentration of BETi1 ([2]; 7.5 mg intra-articular, 72 h (day 3)): 125.625
- Synovial concentration of BETi1 ([2]; 7.5 mg intra-articular, 336 h (day 14)): 0
- Synovial concentration of BETi1 ([2]; 7.5 mg intra-articular, 504 h (day 21)): 0
- Synovial concentration of BETi1 ([2]; 7.5 mg intra-articular, 672 h (day 28), in ng/mL): 0.685
- Synovial concentration of BETi1 ([2]; 7.5 mg intra-articular, […] (day 7)): 1.58
- Synovial concentration of BETi1 ([2]; 75 mg intra-articular, 72 h (day 3)): 27050
- Synovial concentration of BETi1 ([2]; 75 mg intra-articular, 336 h (day 14)): 6805
- Synovial concentration of BETi1 ([2]; 75 mg intra-articular, 504 h (day 21)): 937
- Synovial concentration of BETi1 ([2]; 75 mg intra-articular, 672 h (day 28)): 316
- Synovial concentration of BETi1 ([2]; 75 mg intra-articular, […] (day 7)): 33700
- Synovial concentration of BETi1 ([2]; 150 mg intra-articular, 72 h (day 3)): 47600
- Synovial concentration of BETi1 ([2]; 150 mg intra-articular, 336 h (day 14)): 18070
- Synovial concentration of BETi1 ([2]; 150 mg intra-articular, 504 h (day 21)): 7765
- Synovial concentration of BETi1 ([2]; 150 mg intra-articular, 672 h (day 28)): 4375
- Synovial concentration of BETi1 ([2]; 150 mg intra-articular, […] (day 7)): 36000
- AUC(0-t) ([2]; 7.5 mg/animal, Male, Study Day 1): 25.4 µg·h/mL
- Cmax ([2]; 7.5 mg/animal, Male, Study Day 1, read-out: Synovia Cmax): 244 ng/mL
- Tmax ([2]; 7.5 mg/animal, Male, Study Day 1, read-out: Synovia Tmax): 120 h
- AUC(0-t) ([2]; 75 mg/animal, Female, Study Day 1): 6090 µg·h/mL
- Cmax ([2]; 75 mg/animal, Female, Study Day 1, read-out: Synovia Cmax): 43700 ng/mL
- Tmax ([2]; 75 mg/animal, Female, Study Day 1, read-out: Synovia Tmax): 120 h
- AUC(0-t) ([2]; 75 mg/animal, Male, Study Day 1): 7890 µg·h/mL
- Cmax ([2]; 75 mg/animal, Male, Study Day 1, read-out: Synovia Cmax): 47600 ng/mL
- Tmax ([2]; 75 mg/animal, Male, Study Day 1, read-out: Synovia Tmax): 120 h
- AUC(0-t) ([2]; 150 mg/animal, Female, Study Day 1): 11300 µg·h/mL
- Cmax ([2]; 150 mg/animal, Female, Study Day 1, read-out: Synovia Cmax): 46100 ng/mL
- Tmax ([2]; 150 mg/animal, Female, Study Day 1, read-out: Synovia Tmax): 204 h
- AUC(0-t) ([2]; 150 mg/animal, Male, Study Day 1): 12500 µg·h/mL
- Cmax ([2]; 150 mg/animal, Male, Study Day 1, read-out: Synovia Cmax): 63200 ng/mL
- Tmax ([2]; 150 mg/animal, Male, Study Day 1, read-out: Synovia Tmax): 120 h
- concentration at 4 weeks ([2]; both sexes, 75 mg/animal, intra-articular, 75 mg): 1 µM
- concentration at 4 weeks ([2]; both sexes, 150 mg/animal, intra-articular, 150 mg): 13 µM
- Tmax ([2]; both sexes, intra-articular, calculated, read-out: Tmax, synovial fluid (converted)): ~120 h
- Cmax ([2]; both sexes, intra-articular, highest dose (150 mg), read-out: Cmax, synovial fluid): 50000 ng/mL
- tolerability, synovium findings ([3]; intra-articular 7.5, 75, 150 mg, 28 days): overall well-tolerated
- total Mankin score, right knee joint ([3]; intra-articular, 14-points scale): total Mankin score of zero except for one animal at 75 mg dose
